Measured values from US20090306012A1, “THERAPEUTIC PROTOCOLS” (priority 2001, published 2009).
Read-outs that look alike come from different tables or passages of the source.

Key:
[1] = assay type: in vivo; conditions: 6-week regimen
Method: The overall survival time was calculated as the time (days or weeks) that the animal lived, after the commencement of treatment.

[2] = test system: neutrophils; assay: Phase I clinical trial of doxorubicin + HA (HyDox) in advanced cancer: toxicity, neutrophil counts; assay type: in vivo, patients; conditions: HA 500 mg/m^2 with Dox 30-60 mg/m^2, three week cycle
Description: The eligibility criteria, for inclusion in this study, were as follows: Patients must have advanced or metastatic cancer, histologically or cytologically confirmed. Patients were not to have had previous chemotherapy or were to have had no more than one prior chemotherapy regime and were not to have had prior anthracyclines. Patients were to be aged between 18 and 75 years with ambulatory performance status and adequate bone marrow, liver and renal function.
The treatment plan provided that, in the first chemotherapy cycle, patients be randomized to receive Dox alone or Dox plus HA. The converse applied in the second cycle. In the subsequent four cycles, patients received Dox plus HA. This allowed each patient to act as his/her own control in the toxicity analysis in the first two cycles, reducing the possibility of inter-patient variability affecting result interpretation.
Injectable sodium chloride was obtained from Baxter Healthcare, Sydney, Australia, as supplied as a 500 ml infusion bag.
Therefore, the initial dose level was 30 mg/m^2, the next 45 mg/m^2 and the next 60 mg/m^2.

[3] = In vivo cytotoxicity (III), CMF±HA: organ pathology (lungs, liver); design: species or system Athymic CBA/WEHI nude female mice
Description: (§1) Immediately after killing the mouse, the tumor, liver, heart, spleen, bladder, left and right kidneys, uterus, lungs, stomach, intestines, brain and lymph nodes were excised and weighed, and placed in 10% v/v formalin. The tissue was fixed for 16-24 hrs before histological processing. Fixed tissue was dehydrated stepwise to 100% v/v ethanol and embedded in paraffin blocks from which 2-4 μm sections were placed on glass microscope slides. Staining the tissue sections with a hematoxylin nuclear stain and eosin cytoplasmic stain highlighted any pathological features that could indicate treatment toxicity.

[4] = test system: blood cell sub-populations; assay: In vivo cytotoxicity (III), CMF±HA: bone marrow suppression (blood cell counts); design: species or system Athymic CBA/WEHI nude female mice
Method: At the experimental end-point, when animals had to be euthanased due to degree of disease progression or when the 6-week treatment regimen was completed, the animals were anesthetized by a 0.1 ml intra-peritoneal injection of Nembutal (60 mg/ml), blood was collected, and the animals killed using cervical dislocation.
Erythrocyte, platelet and white blood cell numbers were estimated by making a 1/50- 1/2000 dilution of blood in mouse tenacity saline and counting on a hemocytometer. A blood smear was made and stained with Giemsa, thereby enabling a relative percentage quantification of neutrophils, lymphocytes, and […]. The total estimation of blood cell sub-populations was compared with published data for mouse blood.

[5] = test system: neutrophils; conditions: human, in vivo
Method: The 5-FU±HA was given by intravenous administration over one hour on a four week cycle. The initial dose of 5-FU in this study was 450 mg/m^2 daily for three days and the dose of HA 500 mg/m^2 with each administration of 5-FU. Dose escalation occurred in two steps to reach the standard dose of 450 mg/m^2 for five consecutive days with each cycle. Therefore, the initial dose level was 450 mg/r^2 daily for three days, the next 450 mg/m^2 for four days and the final 450 mg/m^2 daily for five days.

[6] = In vivo cytotoxicity (III), CMF±HA: effect of treatment on organ mass; design: species or system Athymic CBA/WEHI nude female mice; conditions: mouse
Description: as §1
The mass of each organ was calculated as a percentage of the overall net bodyweight, and compared to the organ masses of the saline only group.

[7] = HA days 1 and 3 (CMF, where given, days 2 and 4)

## hyaluronan [HA]
[1]; [7]
  Survival time mean ± SEM: 42 ± 0 days
[1]; administered days 1 and 2
  Survival time mean ± SEM: 42 ± 0 days
[2]
  Effect on known toxicities of Dox in patients: does not increase any of the known toxicities of Dox
[3]; liver pathology
  Liver: % with areas of focal liver necrosis/inflammation: 25% with
[3]; lung pathology
  Lungs: % with oedema and macrophage infiltrate: 12.5% with
[4]; [7]
  Erthrocytes (Mean ± SD): 8.78 ± 0.25 × 10^6/ul
  Lymphocytes/Monocytes (Mean ± SD): 47 ± 2%
  Neutrophils/eosinophils/basophils (Mean ± SD): 53 ± 2%
  Platelets (Mean ± SD): 1356 ± 41 × 10^3/ul
  White Cells (Mean ± SD): 6.15 ± 0.05 × 10^3/ul
[4]; administered days 1 and 2
  Erthrocytes (Mean ± SD): 8.99 ± 0.13 × 10^6/ul
  Lymphocytes/Monocytes (Mean ± SD): 47 ± 1%
  Neutrophils/eosinophils/basophils (Mean ± SD): 53 ± 1%
  Platelets (Mean ± SD): 1374 ± 7 × 10^3/ul
  White Cells (Mean ± SD): 6.15 ± 0.03 × 10^3/ul
[5]
  Effect on known toxicities of 5-FU in patients: does not increase any of the known toxicities of 5-FU
[6]
  Spleen mass compared to the untreated control: significant enlargement of the spleen
